Here are results for 38 compounds from ChEMBL document CHEMBL2095176, “GSK Tuberculosis Screening Data”.

The subject of data set [1] is Mycobacterium tuberculosis H37Rv. As to the kind of experiment: microbe, parasite or virus in culture.
Description: GSK_TB: Intracellular minimum inhibitory concentration (MIC) H37Rv assay
The conditions of data set [2]: buffer, pH 7.4.
Description: (§1) GSK_TB: GSK in-house hydrophobicity assay at pH7.4 (logD)
For data set [3] the following is noted: octanol/water.
Description: (§2) GSK_TB: GSK in-house hydrophobicity assay (logP)
Data set [4] can be described thus: physchem. The following applies: phosphate buffered saline, pH 7.4.
Data set [5] is described as follows: physchem. The following applies: octanol/water.
Description: as §2
The nature of data set [6]: physchem. The following applies: buffer, pH 7.4.
Description: as §1

In brackets after ≈: the same amount, converted by molar mass.

In data set [1], `CC(C)(C)c1ccc(-c2nnc(SCC(=O)OC3CCCCC3)o2)cc1` returned an MIC90 of 1.74 µM (≈ 0.651 µg/mL). Also, the logD7.4 in data set [2] is reported as 9.17. Moreover, the logP (in general, the decadic logarithm of the partition coefficient of the neutral form, usually between octanol and water) in data set [3] worked out at 9.65. In addition, the solubility (kinetic) (commonly the concentration staying in solution when a stock, usually in DMSO, is diluted into the medium) in the data set “physchem [4]” was determined as 1 µM (≈ 0.375 µg/mL).
As to `Cc1ccc(CNC(=O)c2cnn3c2NC(c2ccc(C)cc2)CC3C(F)F)cc1` (configuration not stated), the MIC90 in data set [1] was found to be 1.23 µM (≈ 0.505 µg/mL). Moreover, in the data set “physchem [5]”, the lipophilicity (logP) turned out to be 7.09. Further, the logD (as a rule, lipophilicity at a set pH, counting ionised and neutral species) in the data set “physchem [6]” worked out at 6.84. Further, the solubility (kinetic) in the data set “physchem [4]” is 1 µM (≈ 0.41 µg/mL).
As for `CCCCS(=O)(=O)Nc1ccc2cnn(C)c2c1`, the MIC90 in data set [1] came to 1.3 µM (≈ 0.348 µg/mL). The compound further returned a logP in the data set “physchem [5]” of 3.58. Also, in the data set “physchem [6]”, the logD worked out at 3.48. The compound also showed a solubility (kinetic) in “physchem [4]” of 552 µM (≈ 148 µg/mL).
The matching figures for `Brc1cncc(-c2cc(NCCCn3ccnc3)nc(-c3ccccc3)n2)c1`: 5.19 µM (≈ 2.26 µg/mL), 5.83, 5.53 and 15 µM (≈ 6.53 µg/mL).
Compound `Cc1ccc2nc(C(F)(F)F)c(C(=O)NCc3ccc4c(c3)OCO4)n2c1` yielded an MIC90 in data set [1] of 1.1 µM (≈ 0.415 µg/mL). In addition, the logP in “physchem [5]” is 4.98. This compound also yielded a logD in “physchem [6]” of 4.79. In the data set “physchem [4]”, this compound returned a solubility (kinetic) of 22 µM (≈ 8.3 µg/mL).
The corresponding values for `N=C(N)c1ccc(CCN2CCC(c3nc(COCC(F)(F)F)c(-c4ccc(F)cc4)o3)CC2)cc1.O=C(O)C(F)(F)F.O=C(O)C(F)(F)F` are 6.17 µM, 6.14, 3.76 and 255 µM.
`Cc1nc2ccccn2c1C(=O)NCc1ccc2c(c1)OCO2`: in data set [1], the MIC90 came out at 2.9 µM (≈ 0.897 µg/mL). The compound further displayed a log partition coefficient (logP) in the data set “physchem [5]” of 3.02. The logD in “physchem [6]” was 3.02. Also, the solubility (kinetic) in the data set “physchem [4]” is 357 µM (≈ 110 µg/mL).
`Brc1c(-c2ccc3c(c2)OCO3)nc2ncccn12` gave an MIC90 in data set [1] of 4.7 µM (≈ 1.5 µg/mL). Moreover, the log partition coefficient (logP) in the data set “physchem [5]” worked out at 3.48. Moreover, the pH-dependent lipophilicity (logD) in “physchem [6]” is 3.48. The compound further had a solubility (kinetic) in the data set “physchem [4]” of 219 µM (≈ 69.7 µg/mL).
The compound `Cc1cc(OCC(=O)Nc2ccccc2)c2cc(Br)ccc2n1` came in with an MIC90 in data set [1] of 3.3 µM (≈ 1.23 µg/mL). In addition, in “physchem [5]”, the logP turned out to be 5.44. Moreover, in “physchem [6]”, the logD amounted to 5.25. The same compound showed a kinetic solubility in the data set “physchem [4]” of 16 µM (≈ 5.94 µg/mL).
For the compound `Cc1ccc2[nH]c(C3CCCNC3)c(-c3ccncc3)c2c1` (configuration not stated), the MIC90 in data set [1] is 7.67 µM (≈ 2.24 µg/mL). The logP in the data set “physchem [5]” turned out to be 3.72. For the same compound, in “physchem [6]”, the logD amounted to 2.18. This compound also yielded a kinetic solubility in “physchem [4]” of 267 µM (≈ 77.8 µg/mL).
In turn, `Cn1ccnc1CNCCS(=O)(=O)c1cccc(Nc2ccc(-c3cccc(F)c3)cn2)c1` displayed an MIC90 in data set [1] of 4.68 µM (≈ 2.18 µg/mL). In “physchem [5]”, the lipophilicity (logP) was determined as 4.62. In “physchem [6]”, this compound showed a log distribution coefficient (logD) of 4.41. The same compound came in with a kinetic solubility in the data set “physchem [4]” of 64 µM (≈ 29.8 µg/mL).
`Cc1nc2ccccn2c1C(=O)NCc1ccccc1`: in data set [1], the MIC90 was found to be 2 µM (≈ 0.531 µg/mL). The same compound registered a lipophilicity (logP) in “physchem [5]” of 3.2. Moreover, in the data set “physchem [6]”, the logD turned out to be 3.2. Also, the kinetic solubility in the data set “physchem [4]” was found to be 403 µM (≈ 107 µg/mL).
Consider `CNc1nc(SC)nc2ccsc12`, for which, in data set [1], the MIC90 was found to be 3.4 µM (≈ 0.718 µg/mL). This compound came in with a log partition coefficient (logP) in the data set “physchem [5]” of 3.3. The compound also displayed a pH-dependent lipophilicity (logD) in “physchem [6]” of 3.3. This compound gave a kinetic solubility in the data set “physchem [4]” of 439 µM (≈ 92.8 µg/mL).
With `Cc1ccc(C(=O)Nc2nc(-c3ccccn3)cs2)s1`, in data set [1], the MIC90 came out at 8.41 µM (≈ 2.54 µg/mL). For the same compound, the log partition coefficient (logP) in the data set “physchem [5]” came to 4.61. This compound returned a pH-dependent lipophilicity (logD) in “physchem [6]” of 4.6. This compound also had a kinetic solubility in “physchem [4]” of 15 µM (≈ 4.52 µg/mL).
The corresponding values for `COc1ccccc1OCCCCn1c(C2CC2)nc2ccccc21` are 3.4 µM (≈ 1.14 µg/mL), 5.83, 5.63 and 167 µM (≈ 56.2 µg/mL).
The matching figures for `COc1ccc(CCNC(=O)c2c(C)nc3ccccn23)cc1`: 3.1 µM (≈ 0.959 µg/mL), 3.41, 3.39 and 348 µM (≈ 108 µg/mL).
With `CN1CCN(c2cc(-c3ccncc3)nc(-c3ccccc3)n2)CC1`, in data set [1], the MIC90 was found to be 9.02 µM (≈ 2.99 µg/mL). In “physchem [5]”, this compound showed a logP of 5.54. Besides, the logD in the data set “physchem [6]” amounted to 4.88. The same compound yielded a kinetic solubility in the data set “physchem [4]” of 379 µM (≈ 126 µg/mL).
Compound `Cc1ccc2nc(C)c(-c3ccn(Cc4ccccc4)n3)n2c1` yielded an MIC90 in data set [1] of 5 µM (≈ 1.51 µg/mL). The same compound came in with a logP in “physchem [5]” of 5.54. The logD in the data set “physchem [6]” came out at 5.16. Besides, in “physchem [4]”, the solubility (kinetic) came to 120 µM (≈ 36.3 µg/mL).
On to `c1ccc(Cc2nnc(Sc3ccnc(N4CCN(c5ccncc5)CC4)n3)n2CCN2CCOCC2)cc1`, for which the MIC90 in data set [1] is 7.85 µM (≈ 4.27 µg/mL). Further, the logP in “physchem [5]” turned out to be 3.12. In the data set “physchem [6]”, this compound came in with a log distribution coefficient (logD) of 2.18. This compound also came in with a kinetic solubility in “physchem [4]” of 186 µM (≈ 101 µg/mL).
Compound `Cl.Cl.O=C(Nc1ccc(NC2=NCCN2)cc1)c1ccc(C(=O)Nc2ccc(NC3=NCCN3)cc2)cc1` yielded an MIC90 in data set [1] of 1.6 µM. The compound further gave a logP in “physchem [5]” of 0.918. Moreover, the logD in “physchem [6]” is 0.12. The compound further returned a solubility (kinetic) in the data set “physchem [4]” of 26 µM.
Take `Cc1nn(Cc2ccccc2)c(Cl)c1C(=O)NC1CCCCCC1`: in data set [1], the MIC90 came out at 5.2 µM (≈ 1.8 µg/mL). Moreover, in “physchem [5]”, the logP was determined as 7.04. Further, the pH-dependent lipophilicity (logD) in the data set “physchem [6]” was found to be 6.75. This compound also had a kinetic solubility in “physchem [4]” of 28 µM (≈ 9.68 µg/mL).
Turning to `CCN(CC)c1ccc(-c2nn3c(-c4n[nH]c5c4CCC5)nnc3s2)cc1`, the MIC90 in data set [1] is 1.5 µM (≈ 0.569 µg/mL). The lipophilicity (logP) in the data set “physchem [5]” turned out to be 5.78. Further, the logD7.4 in data set [2] is recorded as 5.44. The compound further returned a solubility (kinetic) in “physchem [4]” of 1 µM (≈ 0.379 µg/mL).
In data set [1], `Br.CC1(C)NC(N)=NC(=N)N1OCCCOc1ccc(Cl)cc1Cl` displayed an MIC90 of 3.55 µM. The lipophilicity (logP) in the data set “physchem [5]” was 4.83. This compound had a pH-dependent lipophilicity (logD) in the data set “physchem [6]” of 3.39. This compound gave a kinetic solubility in “physchem [4]” of 337 µM.
The corresponding values for `Fc1ccccc1-c1noc(N2CCN(Cc3ccc4c(c3)OCO4)CC2)n1` are 5.2 µM (≈ 1.99 µg/mL), 6.94, 6.56 and 10 µM (≈ 3.82 µg/mL).
The matching figures for `FC(F)(F)c1cc(SCc2ccccc2)nc(-c2ccccn2)n1`: 3.3 µM (≈ 1.15 µg/mL), 7.54, 7.12 and 1 µM (≈ 0.347 µg/mL).
`N#Cc1nc(-c2ccccc2F)oc1NCCc1ccccc1` yielded an MIC90 in data set [1] of 2.79 µM (≈ 0.856 µg/mL). For the same compound, the lipophilicity (logP) in the data set “physchem [5]” came to 6.63. This compound also came in with a log distribution coefficient (logD) in the data set “physchem [6]” of 6.37. Also, in the data set “physchem [4]”, the solubility (kinetic) amounted to 3 µM (≈ 0.922 µg/mL).
`O=C(C=Cc1cccs1)N1CCN(Cc2ccc3c(c2)OCO3)CC1` had an MIC90 in data set [1] of 0.3 µM (≈ 0.107 µg/mL). In “physchem [5]”, this compound showed a log partition coefficient (logP) of 5.23. Moreover, in the data set “physchem [6]”, the pH-dependent lipophilicity (logD) worked out at 4.97. The kinetic solubility in “physchem [4]” was determined as 314 µM (≈ 112 µg/mL).
The corresponding values for `COc1ccc2cc(C(=O)Nc3ccc(C4CCN(C)CC4)cc3)sc2c1` are 9.55 µM (≈ 3.63 µg/mL), 5.93, 3.11 and 62 µM (≈ 23.6 µg/mL).
Turning to `CC1=Nc2ccccc2CN1CC(O)c1cc(Br)cs1` (configuration not stated), the MIC90 in data set [1] came out at 7.85 µM (≈ 2.76 µg/mL). Further, in “physchem [5]”, the logP turned out to be 4.12. The same compound yielded a logD in the data set “physchem [6]” of 2.46. The solubility (kinetic) in the data set “physchem [4]” amounted to 563 µM (≈ 198 µg/mL).
The compound `CC(C)(C)C(=O)CC1(O)Oc2ccccc2N=C1C=C(O)C(C)(C)C` (configuration not stated) displayed an MIC90 in data set [1] of 4.03 µM (≈ 1.39 µg/mL). In the data set “physchem [5]”, this compound had a logP of 7.84. Moreover, the pH-dependent lipophilicity (logD) in “physchem [6]” was found to be 7.49. For the same compound, the kinetic solubility in “physchem [4]” was 75 µM (≈ 25.9 µg/mL).
The corresponding values for `COc1cc(CN2CCC3(C=Cc4ccccc43)CC2)cc2c1OCO2` are 9.5 µM (≈ 3.32 µg/mL), 8.25, 7.03 and 121 µM (≈ 42.3 µg/mL).
The corresponding values for `Cn1c(=O)c2c([S+](C)[O-])snc2n(C)c1=O` (configuration not stated) are 9.77 µM (≈ 2.53 µg/mL), 1.24, 1.24 and 420 µM (≈ 109 µg/mL).
In turn, `Nc1cccnc1Nc1ccc(C(F)(F)F)cc1` yielded an MIC90 in data set [1] of 2.24 µM (≈ 0.567 µg/mL). Also, the log partition coefficient (logP) in “physchem [5]” came out at 5.03. Besides, in the data set “physchem [6]”, the logD was 4.97. Further, the solubility (kinetic) in “physchem [4]” was 328 µM (≈ 83.1 µg/mL).
The matching figures for `O=C(COc1ccccc1)N1CCN(c2cnc3ccccc3n2)CC1`: 3.09 µM (≈ 1.08 µg/mL), 4.72, 4.69 and 173 µM (≈ 60.3 µg/mL).
`C[C@@H](NCCc1nc(-c2cn(C)c3ccccc23)no1)C1CCCCC1.Cl` displayed an MIC90 in data set [1] of 1.15 µM. In addition, the log partition coefficient (logP) in the data set “physchem [5]” was found to be 8.75. In the data set “physchem [6]”, this compound gave a log distribution coefficient (logD) of 6.56. This compound also registered a solubility (kinetic) in “physchem [4]” of 202 µM.
The matching figures for `COc1ccc(Nc2ccccc2NC(=O)c2ccc(O)nc2)cc1`: 7.08 µM (≈ 2.37 µg/mL), 2.97, 2.92 and 362 µM (≈ 121 µg/mL).
The corresponding values for `O=C(CCCSc1ccccc1)NNC(=O)c1cccs1` are 8.32 µM (≈ 2.67 µg/mL), 3.77, 3.67 and 559 µM (≈ 179 µg/mL).
The corresponding values for `O=C(C=Cc1cccs1)N1CCN(Cc2ccc(Br)s2)CC1` are 1.9 µM (≈ 0.755 µg/mL), 6.74, 6.47 and 152 µM (≈ 60.4 µg/mL).
